Reference: patent publication US20070054859A1, “Estrogen receptor-related receptor alpha (ERRalpha) and cartilage formation” (priority 2001, published 2007)

Columns and labels:
ERRα [1] = target: T1, ERRα (Homo sapiens, UniProt P11474); conditions: Yang et al. (1999); Tremblay et al. (2001a); cited from earlier work
T1 sequence (P11474 1-423): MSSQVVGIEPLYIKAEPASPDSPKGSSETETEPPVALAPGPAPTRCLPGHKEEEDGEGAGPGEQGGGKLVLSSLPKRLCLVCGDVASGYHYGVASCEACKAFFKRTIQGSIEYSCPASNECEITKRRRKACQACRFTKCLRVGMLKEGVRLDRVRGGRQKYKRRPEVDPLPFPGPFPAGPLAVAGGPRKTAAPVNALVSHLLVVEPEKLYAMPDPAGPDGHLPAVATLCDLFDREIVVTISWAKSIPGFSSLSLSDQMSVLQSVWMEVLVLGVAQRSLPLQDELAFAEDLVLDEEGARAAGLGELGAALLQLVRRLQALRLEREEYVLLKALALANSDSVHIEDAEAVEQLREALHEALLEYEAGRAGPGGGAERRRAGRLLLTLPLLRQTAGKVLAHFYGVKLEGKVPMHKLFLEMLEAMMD

ERRα mRNA = ERRα mRNA levels in C5.18 cultures by semi-quantitative RT-PCR, normalised against L32; format: cell-based, rat; conditions: C5.18 cultures without FBS, 10^−9M E2 versus 0.01% ethanol vehicle, day 2; FIG. 8 Panel B
Protocol: Semi-quantitative RT-PCR was carried out as described in Bonnelye et al. (2001), over the proliferation/differentiation time course of C5.18 cultures treated with Dex. Days 3 and 6 were within the proliferation phase and days 11, 15 and 21 were within the differentiation stage. ERRα expression was normalised against that of the ribosomal probe L32. For comparison, mRNA levels for three chondroblast markers, type II collagen, aggrecan and link protein, were also assessed, normalised against L32.
C5.18 cells were grown in medium with (+) and without (−) fetal bovine serum (FBS). ERRα mRNA levels were determined by semi-quantitative RT-PCR and normalised against ribosomal probe L32.
Similar C5.18 cultures were grown without FBS but in the presence of estrogen (10^−9M E2) or vehicle (0.01% ethanol) (VEH) and mRNA levels were determined as above.

ERRα [2] = target: T1, ERRα; conditions: cited from earlier work

Molecule	ERRα antagonist activity (ERRα [1])	ERRα mRNA levels (ERRα mRNA)	binding to ERRα (ERRα [2])
ClC1=C(Cl)C2(Cl)C3C(Cl)C(Cl)CC3C1(Cl)C2(Cl)Cl (stereo not drawn) [chlordane]	antagonise ERRα activity	–	–
estrogen	–	significantly increased	does not bind
